Consider seven compounds from DBAASP.

Converted amounts (≈) assume the structure as drawn.

What all share (assay): ≥ marks a high value that may be exact or a test limit, other limits are often not marked, values filed in µg/mL are converted to µM
Experiment [1] has as its system Candida albicans NCPE 1467.
The subject of experiment [2] is Chromobacterium violaceum ATCC 12472.
For experiment [3], the system named is Enterococcus faecalis NCTC 12697.
In experiment [4] the test system is Escherichia coli NCTC 10418.
For experiment [5], the system named is Pseudomonas aeruginosa ATCC 27853.
In experiment [6] the test system is Staphylococcus aureus ATCC 43300.
Experiment [7] relates to Staphylococcus aureus NCTC 10788.
The subject of experiment [8] is Staphylococcus aureus NCTC 12493.
Experiment [9] deals with Escherichia coli ATCC 25922.
Experiment [10] has as its system Staphylococcus aureus ATCC 12600.
In experiment [11] the test system is Streptococcus mutans ATCC 25175.
For experiment [12], the system named is Escherichia coli ATCC 2592.
Experiment [13] relates to Micrococcus luteus ATCC 9341.
For experiment [14], the system named is Pseudomonas aeruginosa ATCC 9027.
In experiment [15] the test system is Staphylococcus aureus 1550.
The subject of experiment [16] is Staphylococcus aureus ATCC 6538.
Experiment [17] concerns Bacillus subtilis CMCC 63501.
The next experiment concerns Escherichia coli UB1005.
In experiment [18] the test system is Salmonella enterica subsp. enterica serovar Typhimurium ATCC 14028.
The test system of experiment [19] is Salmonella typhimurium ATCC 7731.
The subject of experiment [20] is Staphylococcus aureus ATCC 29213.
Experiment [21] has as its system Staphylococcus epidermidis ATCC 12228.
In experiment [22] the test system is Aspergillus oryzae NBRC 100959.
Experiment [23] deals with Candida viswanathii NBRC 10321.
The subject of experiment [24] is Escherichia coli NBRC 3972.
Experiment [25] has as its system Micrococcus luteus NBRC 3333.
The test system of experiment [26] is Pseudomonas putida NBRC 100650.
Experiment [27] has as its system Staphylococcus epidermidis NBRC 12993.
The subject of experiment [28] is Aeromonas hydrophila ATCC 35654.
Experiment [29] has as its system Micrococcus luteus ATCC 49732.
Experiment [30] relates to Staphylococcus aureus ATCC 25923.
Experiment [31] relates to Lacticaseibacillus rhamnosus 1.0385.
Experiment [32] concerns Lacticaseibacillus rhamnosus 1.0386.
Experiment [33] has as its system Lacticaseibacillus rhamnosus 1.0911.
Experiment [34] concerns Lacticaseibacillus rhamnosus 1.0925.
For experiment [35], the system named is Lacticaseibacillus rhamnosus 7469.
The subject of experiment [36] is Lactiplantibacillus plantarum 8014.

In the case of `CC[C@H](C)[C@H](NC(=O)[C@H](C)NC(=O)[C@H](C)NC(=O)[C@@H]1CCCN1C(=O)[C@@H](NC(=O)[C@H](CC(C)C)NC(=O)[C@H](CCCCN)NC(=O)[C@H](CO)NC(=O)[C@H](C)NC(=O)[C@@H](NC(=O)[C@H](CCCCN)NC(=O)[C@H](Cc1ccccc1)NC(=O)[C@H](CC(C)C)NC(=O)[C@H](C)NC(=O)CNC(=O)[C@H](CC(C)C)NC(=O)[C@@H](N)Cc1ccccc1)C(C)C)C(C)C)C(=O)N[C@H]1CSSC[C@@H](C(=O)O)NC(=O)[C@H](CCCCN)NC(=O)[C@H](CCCCN)NC(=O)[C@H](CO)NC(=O)[C@H]([C@@H](C)CC)NC(=O)[C@H](CO)NC1=O` [FLGALFKVASKLVPAAICSISKKC], the MIC is 4 µM (≈ 9.97 µg/mL) in [1]; not below 205 µM in experiment [2]; 12.8 µM (≈ 31.9 µg/mL) in experiment [3]; 8 µM (≈ 19.9 µg/mL) in [4]; 32 µM (≈ 79.8 µg/mL) in [5]; 51.3 µM (≈ 128 µg/mL) in experiment [6]. Besides, the MIC in [7] is 2 µM (≈ 4.99 µg/mL); in experiment [8] it was 4 µM (≈ 9.97 µg/mL).

Turning to `CC[C@H](C)[C@H](NC(=O)[C@H](C)NC(=O)CNC(=O)[C@H](Cc1ccccc1)NC(=O)[C@H](CC(C)C)NC(=O)CN)C(=O)N[C@@H](C)C(=O)NCC(=O)N[C@@H](Cc1ccccc1)C(=O)N[C@H](C(=O)N[C@@H](CCCCN)C(=O)N[C@@H](CCCCN)C(=O)NCC(=O)N[C@@H](Cc1c[nH]c2ccccc12)C(=O)N1CCC[C@H]1C(=O)NCC(=O)N[C@@H](CC(C)C)C(=O)N[C@H](C(=O)N[C@@H](CCCCN)C(=O)NCC(N)=O)C(C)C)[C@@H](C)CC` [GLFGAIAGFIKKGWPGLVKG], the MIC in experiment [9] was 7.8 µM (≈ 15.7 µg/mL); in experiment [5], 15.5 µM (≈ 31.2 µg/mL); in [10] it was 3.9 µM (≈ 7.86 µg/mL); in experiment [11], 1.9 µM (≈ 3.83 µg/mL).

Take `CC(C)[C@H](NC(=O)[C@H](CCCCN)NC(=O)[C@H](Cc1ccccc1)NC(=O)[C@@H](NC(=O)[C@@H](NC(=O)[C@H](CCCCN)NC(=O)[C@@H](N)CCCCN)C(C)C)C(C)C)C(=O)N[C@@H](CCCCN)C(=O)N[C@@H](Cc1ccccc1)C(=O)N[C@@H](CCCCN)C(=O)O` [KKVVFKVKFK]: the MIC was 8 µM (≈ 10 µg/mL) in experiment [12]; 3.2 µM (≈ 4 µg/mL) in experiment [13]; 4 µM (≈ 5 µg/mL) in experiment [14]; 17.6 µM (≈ 22 µg/mL) in experiment [15]; 2.49 µM (≈ 3.12 µg/mL) in experiment [16].

In the case of `CC[C@H](C)[C@H](NC(=O)[C@H](C)NC(=O)[C@H](CCCCN)NC(=O)[C@H](Cc1ccc(O)cc1)NC(=O)[C@@H](N)CC(C)C)C(=O)N[C@@H](CCCN=C(N)N)C(=O)N[C@@H](CCCN=C(N)N)C(=O)N[C@@H](CCCCN)C(N)=O` [LYKAIRRK], the minimal inhibitory concentration (MIC) in experiment [17] is not below 128 µM; in experiment [9], more than 128 µM; against Escherichia coli UB1005, not below 128 µM; in [5], more than 128 µM; in experiment [18], more than 128 µM; in experiment [19] it was not below 128 µM. In addition, the MIC in [20] and in experiment [21] was more than 128 µM each time.

For the compound `CC[C@H](C)[C@H](NC(=O)[C@H](CCSC)NC(=O)[C@H](CCCN=C(N)N)NC(=O)[C@H](CCCN=C(N)N)NC(=O)[C@H](CC(C)C)NC(=O)[C@H](Cc1ccc(O)cc1)NC(=O)[C@H](CCCN=C(N)N)NC(=O)[C@H](CCCCN)NC(=O)[C@@H](NC(=O)[C@H](CCCCN)NC(=O)[C@@H](N)CCCN=C(N)N)[C@@H](C)CC)C(=O)O` [RKIKRYLRRMI], the MIC worked out at 16.3 µM (≈ 25 µg/mL) in [22]; 8.15 µM (≈ 12.5 µg/mL) in experiment [23]; 4.08 µM (≈ 6.25 µg/mL) in experiment [24]; 2.04 µM (≈ 3.13 µg/mL) in experiment [25]; 8.15 µM (≈ 12.5 µg/mL) in experiment [26]; 4.08 µM (≈ 6.25 µg/mL) in experiment [27].

In the case of `CC(C)C[C@H](NC(=O)[C@H](Cc1cnc[nH]1)NC(=O)[C@H](C)NC(=O)[C@H](CCCCN)NC(=O)[C@H](CCCCN)NC(=O)[C@H](Cc1ccccc1)NC(=O)[C@H](CO)NC(=O)[C@H](CCCCN)NC(=O)[C@H](CC(=O)O)NC(=O)[C@H](Cc1cnc[nH]1)NC(=O)[C@H](Cc1c[nH]c2ccccc12)NC(=O)[C@H](CCCN=C(N)N)NC(=O)[C@H](CCC(N)=O)NC(=O)[C@H](CCC(N)=O)NC(=O)[C@H](CCCN=C(N)N)NC(=O)[C@@H](N)CCCN=C(N)N)C(=O)NCC(=O)N[C@H](C(=O)N[C@@H](C)C(=O)N[C@H](C(=O)N[C@@H](CCCCN)C(=O)N[C@@H](C)C(N)=O)C(C)C)[C@@H](C)O` [RRQQRWHDKSFKKAHLGTAVKA], the MIC in experiment [28] is 20 µM (≈ 53 µg/mL); in experiment [9] it was more than 20 µM; in experiment [29], 20 µM (≈ 53 µg/mL); in [30] it was more than 20 µM.

On to `NC(=O)[C@H](CCCN=C(N)N)NC(=O)[C@H](CCCN=C(N)N)NC(=O)[C@H](Cc1c[nH]c2ccccc12)NC(=O)[C@H](Cc1ccc(O)cc1)NC(=O)[C@H](Cc1c[nH]c2ccccc12)NC(=O)[C@H](Cc1c[nH]c2ccccc12)NC(=O)[C@H](Cc1c[nH]c2ccccc12)NC(=O)[C@H](Cc1ccc(O)cc1)NC(=O)[C@H](Cc1c[nH]c2ccccc12)NC(=O)[C@H](CCCN=C(N)N)NC(=O)[C@@H](N)CCCN=C(N)N` [RRWYWWWYWRR], for which the MIC in experiment [9] was 32 µM (≈ 60.8 µg/mL); in the experiment on Escherichia coli UB1005, not below 32 µM; in [31], 16 µM (≈ 30.4 µg/mL); in experiment [32] it was 16 µM (≈ 30.4 µg/mL); in experiment [33] it was not below 64 µM; in [34], not below 64 µM. In addition, the MIC in experiment [35] was not below 64 µM; in [36], 4 µM (≈ 7.6 µg/mL); in [5], 8 µM (≈ 15.2 µg/mL); in experiment [20] it was 8 µM (≈ 15.2 µg/mL); in experiment [6], 8 µM (≈ 15.2 µg/mL); in [21], 8 µM (≈ 15.2 µg/mL).
